18 molecules from ChEMBL document CHEMBL5550181 (Bioorg Med Chem, 2024) can be followed below.

Series [1] addresses T1, Proteasome subunit beta type-8 (Homo sapiens, UniProt P28062).
T1 sequence (P28062 whole entry): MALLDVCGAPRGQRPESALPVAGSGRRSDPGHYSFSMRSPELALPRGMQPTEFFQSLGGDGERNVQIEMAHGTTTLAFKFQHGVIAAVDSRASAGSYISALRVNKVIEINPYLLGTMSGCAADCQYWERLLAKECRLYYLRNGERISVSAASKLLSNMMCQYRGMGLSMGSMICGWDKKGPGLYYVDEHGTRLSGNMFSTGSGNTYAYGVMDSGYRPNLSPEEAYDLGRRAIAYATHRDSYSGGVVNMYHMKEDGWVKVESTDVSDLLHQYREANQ
The series can be described thus: Inhibition of human LMP7 beta -5i subunit using Ac-ANW-AMC as substrate preincubated with compound for 30 mins followed by substrate addition and measured after 1 hr by fluorescence based analysis.

Series [2] addresses T2, Proteasome subunit beta type-9 (Homo sapiens, UniProt P28065).
T2 sequence (P28065 whole entry): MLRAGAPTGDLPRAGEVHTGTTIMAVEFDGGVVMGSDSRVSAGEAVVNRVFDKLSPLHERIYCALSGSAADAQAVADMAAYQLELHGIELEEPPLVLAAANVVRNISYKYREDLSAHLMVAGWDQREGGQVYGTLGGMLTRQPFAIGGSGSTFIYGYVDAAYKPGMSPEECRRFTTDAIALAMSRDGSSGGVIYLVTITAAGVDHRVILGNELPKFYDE
In words: Inhibition of human LMP2 beta-1i subunit using Ac-PAL-AMC as substrate preincubated with compound for 30 mins followed by substrate addition and measured after 1 hr by fluorescence based analysis.

Series [3] addresses T3, Proteasome Macropain subunit MB1 (Homo sapiens, UniProt P28074).
T3 sequence (P28074 whole entry): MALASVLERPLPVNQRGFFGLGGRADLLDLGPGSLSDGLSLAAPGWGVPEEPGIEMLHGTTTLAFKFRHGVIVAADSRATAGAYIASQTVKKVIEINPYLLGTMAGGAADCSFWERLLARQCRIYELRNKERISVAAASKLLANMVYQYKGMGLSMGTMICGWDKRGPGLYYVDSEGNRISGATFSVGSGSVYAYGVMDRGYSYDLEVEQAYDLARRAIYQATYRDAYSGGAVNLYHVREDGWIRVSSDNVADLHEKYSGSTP
The series can be described thus: Inhibition of human 20S proteosome beta5c subunit using Ac-WLA-AMC as substrate preincubated with compound for 30 mins followed by substrate addition and measured after 1 hr by fluorescence based analysis.

The species entered for series [4] is Homo sapiens. The series can be described thus: Selectivity index, ratio of IC50 for inhibition of human 20S proteosome beta5c subunit using Ac-WLA-AMC as substrate to IC50 for inhibition of human LMP7 beta -5i subunit using Ac-ANW-AMC as substrate.
A short description of series [5]: Drug metabolism in human liver microsomes assessed as reactive metabolite formation by measuring dGSH trapping measured per mg of protein incubated for 60 mins in presence of NADPH by HPLC analysis. In kind it is ADME, Microsome. Particulars: 1 h. On the technique in general: Microsomes from liver hold many membrane-bound enzymes, among them those of drug oxidation.

Series [6] can be described thus: Permeability of the compound by PAMPA assay. In kind it is ADME. Particulars: read-out: permeability.
Series [7] is described as follows: Microsomal stability in mouse liver microsome assessed as intrinsic clearance. In kind it is ADME. The following applies: liver microsomes, read-out: CLH.
Series [8] relates to Mus musculus. The series can be described thus: Inhibition of NP30-IgG production in NP-OVA-induced po dosed C57BL/6 mouse model administered for 9 days by ELISA analysis. In kind it is functional, organism-based. The following applies: dose 3-30 mg/kg, time 9.0 day. A general note: ELISA stands for enzyme-linked immunosorbent assay.
The test system of series [9] is Mus musculus. In words: Reduction in NP30-specific IgG level in GCB of NP-OVA-induced C57BL/6 mouse model at 10 to 30 mg/kg, po administered for 9 days by flow cytometry analysis. In kind it is functional, organism-based. Particulars: dose 10-30 mg/kg, time 9.0 day. (In general: In flow cytometry, cells or beads pass a laser one at a time.)
The subject of series [10] is Plasma. The series can be described thus: Reduction in NP30-specific IgG level in plasma of NP-OVA-induced C57BL/6 mouse model at 30 mg/kg, po administered for 9 days by ELISA analysis. Particulars: time 9.0 day. The format is functional, organism-based.
Series [11] can be described thus: Effect on hematological parameters in C57BL/6 mouse at 3 to 30 mg/kg, po administered for 9 days. The following applies: in vivo, 216 h, dose 3-30 mg/kg, time 9 day. In kind it is toxicity, organism-based.
For series [12], the species on record is Homo sapiens. The series can be described thus: Selectivity index, ratio of IC50 for inhibition of human 20S proteosome beta5c subunit using Ac-WLA-AMC as substrate to IC50 for inhibition of human LMP2 beta-1i subunit using Ac-PAL-AMC as substrate.

Calls of active or inactive are those of the source. The rule behind the calls is not given here. A value given as a limit tells only on which side of the number the result lay.

A word on the IC50: it is the concentration that inhibits the measured activity by half. `O=C(N[C@@H](CC1CCCCC1)B(O)O)c1cn(C2CCCCC2)nn1`: the concentration for half-maximal inhibition (IC50) in [1] was 130 nM; in series [2], under 10 nM; in series [3], 19500 nM. Besides, the Ratio IC50 in series [4] is 150. The Drug metabolism in [5] was determined as 680 pmol/h.
For `O=C(N[C@@H](CC1CCCC1)B(O)O)c1cn(C2CCCCC2)nn1` the same measures were 63 nM, under 5 nM, 15400 nM, 244 and 426 pmol/h.
For the molecule `O=C(N[C@H](B(O)O)C1CCCCC1)c1cn(C2CCCCC2)nn1`, the IC50 in series [1] worked out at 257 nM; in [2], 10 nM; in series [3], 44600 nM. The Ratio IC50 in series [4] turned out to be 174. Further, in [5], the Drug metabolism came out at 342 pmol/h. In series [6], the Papp amounted to 11.9 ×10⁻⁶ cm/s. In addition, the microsomal CLint in [7] was 99 µL/min/mg. Also, the inhibition result in series [8] was “Dose-Dependent Effect”. The outcome in [9] and in series [10] was Active. Also, the Activity entry in series [11] is given as “Non-Toxic”.
In the case of `O=C(N[C@@H](CC1CCC1)B(O)O)c1cn(C2CCCCC2)nn1`, the IC50 in series [1] was 198 nM; in [2] it was under 5 nM; in series [3], 13100 nM. For the same molecule, the Ratio IC50 in series [4] amounted to 66.
Consider `CC(C)C[C@H](NC(=O)c1cnn(C2CCCCC2)c1)B(O)O`, for which the results for the IC50 in [1], in [2] and in series [3] were 18800 nM, 132 nM and over 80000 nM, respectively. In [4], the Ratio IC50 is over 4.
Turning to `CC(C)C[C@H](NC(=O)c1cnn(C2CCCCC2)n1)B(O)O`, the half-maximal inhibitory concentration (IC50) is 1570 nM in series [1], 62 nM in series [2] and 6310 nM in [3]. The Ratio IC50 in [4] was determined as 4.
On to `O=C(N[C@@H](Cc1ccccc1)B(O)O)c1cn(C2CCCCC2)nn1`, for which the IC50 worked out at 8 nM in series [1], 5 nM in [2] and 302 nM in series [3]. Also, in series [4], the Ratio IC50 turned out to be 38. The Drug metabolism in series [5] was determined as 736 pmol/h.
Take `Cc1c(C(=O)N[C@@H](CC(C)C)B(O)O)nnn1C1CCCCC1`: the half-inhibitory concentration (IC50) in series [1] was 1210 nM; in [2], 189 nM; in series [3] it was 47300 nM. The Ratio IC50 in series [4] turned out to be 39.
As to `COc1ccc([C@@H](O)[C@H](NC(=O)[C@H](C)NC(=O)CN2CCOCC2)C(=O)N[C@@H](CC2=CCCC2)C(=O)[C@@]2(C)CO2)cc1` [ZETOMIPZOMIB], the IC50 came to 75 nM in series [1], 557 nM in series [2] and 720 nM in [3]. The Ratio IC50 in series [4] is 9.6; in [12], 1.29.
For the molecule `O=C(N[C@@H](Cc1coc2ccccc12)B(O)O)[C@@H]1C[C@H]2CC[C@@H]1O2`, the IC50 in [1] was 8 nM; in series [2] it was over 80000 nM; in series [3], 2410 nM. Besides, in series [4], the Ratio IC50 was determined as 302.
With `O=C(N[C@H](B(O)O)C1CCCC1)c1cn(C2CCCCC2)nn1`, the IC50 is 132 nM in series [1], 18 nM in series [2] and 5200 nM in series [3]. Also, the Ratio IC50 in series [4] was 39.
For `O=C(N[C@H](B(O)O)C1CCC1)c1cn(C2CCCCC2)nn1` the same measures were 655 nM, under 5 nM, 4950 nM and 8.
On to `CC(C)C[C@H](NC(=O)c1cn(C2CCCCC2)nn1)B(O)O`, for which the IC50 amounted to 73 nM in [1], 3 nM in series [2] and 3220 nM in [3]. The Ratio IC50 in series [4] came to 44; in series [12] it was 1070. In series [5], the Drug metabolism is 1273 pmol/h.
On to `CC(C)C[C@H](NC(=O)c1cc(C2CCCCC2)n(C)n1)B(O)O`, for which the half-maximal inhibitory concentration (IC50) is 11200 nM in series [1], 188 nM in series [2] and over 80000 nM in series [3]. For the same molecule, the Ratio IC50 in [4] was over 7.
As for `CC(C)C[C@H](NC(=O)c1cc(C2CCCCC2)no1)B(O)O`, the IC50 in series [1] was 192 nM; in series [2], 5 nM; in [3], 3690 nM. Moreover, the Ratio IC50 in [4] is 19.
For the molecule `CC(C)C[C@H](NC(=O)c1cc(C2CCCCC2)on1)B(O)O`, the IC50 was found to be 145 nM in series [1], 9 nM in [2] and 2980 nM in series [3]. In addition, in series [4], the Ratio IC50 turned out to be 21.
For `CC(C)C[C@H](NC(=O)c1ccc(C2CCCCC2)nn1)B(O)O` the same measures were 82 nM, 10 nM, 2950 nM and 36.
For `CC(C)C[C@H](NC(=O)c1cc(C2CCCCC2)nn1C)B(O)O` the same measures were 888 nM, 226 nM, 19500 nM and 22.
